Test results taken from PMC9188596, “Structural basis of resistance to herbicides that target acetohydroxyacid synthase” (Nature Communications, 2022).
Where “and” joins values, the source holds several entries; their conditions need not be identical. Identical values can stand only once. Like-named read-outs stand apart in the source and are kept apart here.

Tests used:
[1] = target: T1, AtAHAS S653T mutant (Arabidopsis thaliana, UniProt P17597, S653T); assay: biochemical
Protocol: (§1) Standard assays were performed using a continuous spectrophotometric method measuring the disappearance of pyruvate. The standard buffer contained 50 mM potassium phosphate, pH 7.2, 1 mM ThDP, 10 mM MgCl2, and 10 µM FAD. The concentration of pyruvate was in the range 100–160 mM, as described in the text, methods, or figure legends.
(§2) Supplementary Figure 6. Measurement of the Ki values for WT AtAHAS and the mutants.
(§3) The error bars represent the standard error of the mean of two independent replicates. [I] =
(§4) inhibitor concentration. Source data are provided with this paper.
(§5) (1 picture or pasted object on this page, not shown here)

[2] = target: T2, AtAHAS P197T mutant (Arabidopsis thaliana, UniProt P17597, P197T); assay: biochemical
Protocol: as §1, §2, §3, §4, §5

[3] = target: T3, AtAHAS W574L mutant (Arabidopsis thaliana, UniProt P17597, W574L); assay: biochemical
Protocol: as §1, §2, §3, §4, §5

[4] = target: T4, AtAHAS P197L mutant (Arabidopsis thaliana, UniProt P17597, P197L); assay: biochemical
Protocol: as §1, §2, §3, §4, §5

[5] = target: T5, WT AtAHAS (Arabidopsis thaliana, UniProt P17597); details: ± standard error of the mean, cited from earlier work
[6] = target: T5, WT AtAHAS; assay type: biochemical
Protocol: as §1
(§6) AtAHAS was assayed in the standard assay buffer containing 160 mM pyruvate, at 30 °C. For AtAHAS activation the progress curve corresponding to the lag-phase was fitted to Eq. (8) of Lonhienne et al.[14]. For the time dependent accumulative inhibition of AtAHAS the progress curves were fitted to Equation 9 of Lonhienne et al.[12].
Supplementary Figure 8. Measurement of the rate constants of accumulative inhibition for WT AtAHAS and its mutants. The progress curves were fitted to the equation of accumulative inhibition (Equation 7 2). The rate constants of enzyme inactivation ( kiapp) and enzyme recovery (k3) were measured in triplicate. Source data are provided with this paper.

[7] = target: T1, AtAHAS S653T mutant; assay type: biochemical
Protocol: as §1, §6
(§7) Supplementary Figure 8. Measurement of the rate constants of accumulative inhibition for WT AtAHAS and its mutants. The progress curves were fitted to the equation of accumulative inhibition (Equation 7 2). The rate constants of enzyme inactivation ( kiapp) and enzyme recovery (k3) were measured in triplicate. Source data are provided with this paper. […]

[8] = target: T2, AtAHAS P197T mutant; assay type: biochemical; details: P197T, NAI = no accumulative inhibition detected
Protocol: as §1, §6, §7

[9] = target: T3, AtAHAS W574L mutant; assay type: biochemical; details: NAI = no accumulative inhibition detected
Protocol: as §1, §6, §7

[10] = target: T4, AtAHAS P197L mutant; assay type: biochemical; details: NAI = no accumulative inhibition detected
Protocol: as §1, §6, §7

[11] = Ki (Supplementary Figure 6), S653T, fit of % activity remaining vs [I], two independent replicates
[12] = Ki, S653T mutant, ± standard error of the mean
[13] = Ki, P197T mutant, ± standard error of the mean
[14] = Ki (Supplementary Figure 6), W574L, fit of % activity remaining vs [I], two independent replicates
[15] = Ki, W574L mutant, ± standard error of the mean
[16] = Ki (Supplementary Figure 6), P197L, fit of % activity remaining vs [I], two independent replicates
[17] = Ki, P197L mutant, ± standard error of the mean
[18] = individual replicate of triplicate
[19] = S653T, 160 mM pyruvate, 30 °C, ± SEM
[20] = S653T, individual replicate of triplicate

SMILES: COc1cc(OC)nc(Sc2cccc(Cl)c2C(=O)O)n1 [PTB, pyrithiobac]
- Ki [1, 11]: 0.218 ± 0.0158 µM
- Ki [1, 12]: 0.218 ± 0.0158 µM
- Ki ([2]; Ki (Supplementary Figure 6), P197T, fit of % activity remaining vs [I], two independent replicates): 1.46 ± 0.282 µM
- Ki [2, 13]: 1.5 ± 0.3 µM
- Ki [3, 14]: 91.2 ± 8.19 µM
- Ki [3, 15]: 91.2 ± 8.2 µM
- Ki [4, 16]: 1.95 ± 0.194 µM
- Ki [4, 17]: 2 ± 0.2 µM
- Ki ([5]; ref Garcia et al.[13]): 0.179 ± 0.012 µM

SMILES: COc1cnc(OC)n2nc(NS(=O)(=O)c3c(OCC(F)F)cccc3C(F)(F)F)nc12 [PS, penoxsulam]
- Ki [1, 11]: 0.00504 ± 0.00224 µM
- Ki [1, 12]: 0.005 ± 0.0022 µM
- Ki [2, 13]: 0.085 ± 0.0063 µM
- Ki [3, 14]: 67.1 ± 2.97 µM
- Ki [3, 15]: 67.1 ± 3 µM
- increase in Ki / loss of affinity compared to WT ([3]; W574L vs WT): 35,000 fold
- Ki [4, 16]: 0.0819 ± 0.00726 µM
- Ki [4, 17]: 0.082 ± 0.007 µM
- kiapp/k3 (efficiency of accumulative inhibition) [6]: 87
- k3 (rate of recovery) ([6]; 160 mM pyruvate, 30 °C, ± SEM): 0.014 ± 0.002 min⁻¹
- kiapp (apparent rate of enzyme inactivation) ([6]; 160 mM pyruvate, 30 °C, ± SEM): 1.22 ± 0.09 min⁻¹
- k3, single progress curve (Supplementary Figure 8) [6, 18]: 0.017 min⁻¹ and 0.011 min⁻¹ and 0.013 min⁻¹
- kiapp, single progress curve (Supplementary Figure 8) [6, 18]: 1.4 min⁻¹ and 1.11 min⁻¹ and 1.17 min⁻¹
- kiapp/k3 (efficiency of accumulative inhibition) ([7]; S653T): 126
- efficiency of accumulative inhibition (kiapp/k3) compared to WT (in words) ([7]; S653T vs WT): increased
- k3 (rate of recovery) [7, 19]: 0.015 ± 0.001 min⁻¹
- kiapp (apparent rate of enzyme inactivation) [7, 19]: 1.89 ± 0.12 min⁻¹
- k3, single progress curve (Supplementary Figure 8) [7, 20]: 0.013 min⁻¹ and 0.016 min⁻¹ and 0.015 min⁻¹
- kiapp, single progress curve (Supplementary Figure 8) [7, 20]: 1.78 min⁻¹ and 2.1 min⁻¹ and 1.71 min⁻¹
- k3 (rate of recovery) ([8]; 160 mM pyruvate, 30 °C): NAI
- kiapp (apparent rate of enzyme inactivation) ([8]; 160 mM pyruvate, 30 °C): NAI
- kiapp/k3 (efficiency of accumulative inhibition) [8]: NAI
- k3 (rate of recovery) ([9]; 160 mM pyruvate, 30 °C): NAI
- kiapp (apparent rate of enzyme inactivation) ([9]; 160 mM pyruvate, 30 °C): NAI
- kiapp/k3 (efficiency of accumulative inhibition) [9]: NAI
- k3 (rate of recovery) ([10]; 160 mM pyruvate, 30 °C): NAI
- kiapp (apparent rate of enzyme inactivation) ([10]; 160 mM pyruvate, 30 °C): NAI
- kiapp/k3 (efficiency of accumulative inhibition) [10]: NAI
- Ki ([5]; ref Lonhienne et al.[11]): 0.0019 ± 0.0009 µM
